# ChEMBL document CHEMBL3588817, “Discovery of 4,5,6,7-Tetrahydrobenzo[1,2-d]thiazoles as Novel DNA Gyrase Inhibitors Targeting the ATP-Binding Site” (J Med Chem, 2015)
# How the values were obtained:
# Enterococcus faecalis [1] = assay: Antibacterial activity against Enterococcus faecalis ATCC 29212 assessed as inhibition of microbial growth by broth microdilution method; assay type: functional
# Escherichia coli [2] = assay: Antibacterial activity against wild type Escherichia coli ATCC 25922 assessed as inhibition of microbial growth at 50 uM by broth microdilution method; assay type: functional; conditions: read-out: GI
# [3] = target: Topoisomerase IV (Staphylococcus aureus) (UniProt P0C1U9+P0C1S7); assay: Inhibition of Staphylococcus aureus DNA topoisomerase 4 assessed as residual enzyme activity at 100 uM using relaxed pNO1 plasmid and biotinylated oligonucelotide incubated for 30 mins by fluorescence based DNA relaxation assay; assay type: protein-complex assay
# Escherichia coli [4] = assay: Antibacterial activity against efflux deficient Escherichia coli tolC::Tn10 lacking functional tolC gene by broth microdilution method
# Pseudomonas aeruginosa [5] = assay: Antibacterial activity against Pseudomonas aeruginosa ATCC 27853 assessed as inhibition of microbial growth by broth microdilution method; assay type: functional
# Escherichia coli [6] = assay: Inhibition of Escherichia coli DNA topoisomerase 4 assessed as residual enzyme activity at 100 uM using relaxed pNO1 plasmid and biotinylated oligonucelotide incubated for 30 mins by fluorescence based DNA relaxation assay
# Escherichia coli [7] = assay: Antibacterial activity against wild type Escherichia coli ATCC 25922 assessed as inhibition of microbial growth by broth microdilution method; assay type: functional
# DNA gyrase [8] = target: DNA gyrase (Staphylococcus aureus, UniProt P0A0K8+P20831); assay: Inhibition of Staphylococcus aureus DNA gyrase using relaxed pNO1 plasmid and biotinylated oligonucelotide incubated for 30 mins by fluorescence based DNA super-coiling assay; assay type: protein-complex assay
# Pseudomonas aeruginosa [9] = assay: Antibacterial activity against Pseudomonas aeruginosa ATCC 27853 assessed as inhibition of microbial growth at 50 uM by broth microdilution method; assay type: functional; conditions: read-out: GI
# Enterococcus faecalis [10] = assay: Antibacterial activity against Enterococcus faecalis ATCC 29212 assessed as inhibition of microbial growth at 50 uM by broth microdilution method; assay type: functional; conditions: read-out: GI
# Staphylococcus aureus [11] = assay: Antibacterial activity against Staphylococcus aureus 25923 assessed as inhibition of microbial growth by broth microdilution method; assay type: functional
# Escherichia coli [12] = assay: Antibacterial activity against Escherichia coli imp4213::Tn10 by broth microdilution method; assay type: functional
# Escherichia coli [13] = assay: Antibacterial activity against wild type Escherichia coli ATCC 25922 by broth microdilution method; assay type: functional
# DNA gyrase [14] = target: T1, DNA gyrase (Escherichia coli, UniProt P0AES4+P0AES6); assay: Inhibition of Escherichia coli DNA gyrase using relaxed pNO1 plasmid and biotinylated oligonucelotide incubated for 30 mins by fluorescence based DNA super-coiling assay; assay type: protein-complex assay
# Staphylococcus aureus [15] = assay: Antibacterial activity against Staphylococcus aureus 25923 assessed as inhibition of microbial growth at 50 uM by broth microdilution method; assay type: functional; conditions: read-out: GI
# [16] = target: DNA gyrase (Staphylococcus aureus) (UniProt P0A0K8+P20831); assay: Inhibition of Staphylococcus aureus DNA gyrase assessed as residual enzyme activity at 100 uM using relaxed pNO1 plasmid and biotinylated oligonucelotide incubated for 30 mins by fluorescence based DNA super-coiling assay; assay type: protein-complex assay
# DNA gyrase [17] = target: T1, DNA gyrase; assay: Binding affinity to Escherichia coli DNA gyrase subunit B N-terminal 24 kDa domain by SPR assay; assay type: protein-complex assay
# [18] = Inhibition of Escherichia coli DNA Gyrase ATPase activity assessed as reduction in conversion of NADH to NAD+ using linear pBR322 substrate
# [19] = Inhibition of Escherichia coli DNA topoisomerase 4 using relaxed pNO1 plasmid and biotinylated oligonucelotide incubated for 30 mins by fluorescence based DNA relaxation assay
# Topoisomerase IV = Topoisomerase IV (Staphylococcus aureus, UniProt P0C1S7+P0C1U9); assay: Inhibition of Staphylococcus aureus DNA topoisomerase 4 using relaxed pNO1 plasmid and biotinylated oligonucelotide incubated for 30 mins by fluorescence based DNA relaxation assay; assay type: protein-complex assay
# Topoisomerase IV, sequence (P0C1U9 whole entry): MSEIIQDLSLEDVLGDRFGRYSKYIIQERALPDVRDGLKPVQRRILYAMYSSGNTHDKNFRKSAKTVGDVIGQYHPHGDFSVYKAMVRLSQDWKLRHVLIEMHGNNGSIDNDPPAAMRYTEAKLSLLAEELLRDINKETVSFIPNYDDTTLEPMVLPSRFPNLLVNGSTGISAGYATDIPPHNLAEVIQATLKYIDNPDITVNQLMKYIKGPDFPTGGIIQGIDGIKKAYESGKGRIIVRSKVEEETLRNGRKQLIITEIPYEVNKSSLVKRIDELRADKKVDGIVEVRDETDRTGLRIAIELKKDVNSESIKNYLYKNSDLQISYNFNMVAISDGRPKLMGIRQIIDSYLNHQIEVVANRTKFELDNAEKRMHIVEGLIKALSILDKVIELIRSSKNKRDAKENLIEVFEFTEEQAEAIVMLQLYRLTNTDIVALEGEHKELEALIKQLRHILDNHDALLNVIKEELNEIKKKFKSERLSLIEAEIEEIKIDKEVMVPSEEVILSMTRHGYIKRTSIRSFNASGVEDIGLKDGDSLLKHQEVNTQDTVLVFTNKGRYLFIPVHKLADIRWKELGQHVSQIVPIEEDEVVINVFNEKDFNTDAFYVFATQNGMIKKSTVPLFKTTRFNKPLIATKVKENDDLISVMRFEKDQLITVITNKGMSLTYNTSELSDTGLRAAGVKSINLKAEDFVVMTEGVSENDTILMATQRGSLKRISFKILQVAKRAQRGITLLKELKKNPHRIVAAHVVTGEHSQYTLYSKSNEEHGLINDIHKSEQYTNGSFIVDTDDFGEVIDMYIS
# Topoisomerase IV, sequence (P0C1S7 whole entry): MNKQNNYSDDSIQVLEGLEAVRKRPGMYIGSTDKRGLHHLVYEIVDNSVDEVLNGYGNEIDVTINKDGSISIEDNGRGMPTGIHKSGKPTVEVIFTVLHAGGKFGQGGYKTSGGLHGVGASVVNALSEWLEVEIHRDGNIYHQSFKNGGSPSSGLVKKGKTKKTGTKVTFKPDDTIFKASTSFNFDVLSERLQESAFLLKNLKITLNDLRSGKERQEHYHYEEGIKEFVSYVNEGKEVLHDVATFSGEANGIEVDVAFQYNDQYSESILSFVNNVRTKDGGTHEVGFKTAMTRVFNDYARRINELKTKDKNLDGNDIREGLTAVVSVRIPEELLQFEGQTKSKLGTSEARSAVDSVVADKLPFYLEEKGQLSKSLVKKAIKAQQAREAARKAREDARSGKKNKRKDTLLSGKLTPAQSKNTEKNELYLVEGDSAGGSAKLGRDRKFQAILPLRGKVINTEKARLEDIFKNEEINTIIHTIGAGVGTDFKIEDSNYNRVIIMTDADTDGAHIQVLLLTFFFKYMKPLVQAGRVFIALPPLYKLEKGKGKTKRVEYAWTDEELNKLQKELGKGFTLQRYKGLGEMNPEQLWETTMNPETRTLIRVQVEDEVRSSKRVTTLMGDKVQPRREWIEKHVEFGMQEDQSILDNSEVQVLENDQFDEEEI
# DNA gyrase (Staphylococcus aureus, UniProt P0A0K8+P20831), sequence (P0A0K8 whole entry): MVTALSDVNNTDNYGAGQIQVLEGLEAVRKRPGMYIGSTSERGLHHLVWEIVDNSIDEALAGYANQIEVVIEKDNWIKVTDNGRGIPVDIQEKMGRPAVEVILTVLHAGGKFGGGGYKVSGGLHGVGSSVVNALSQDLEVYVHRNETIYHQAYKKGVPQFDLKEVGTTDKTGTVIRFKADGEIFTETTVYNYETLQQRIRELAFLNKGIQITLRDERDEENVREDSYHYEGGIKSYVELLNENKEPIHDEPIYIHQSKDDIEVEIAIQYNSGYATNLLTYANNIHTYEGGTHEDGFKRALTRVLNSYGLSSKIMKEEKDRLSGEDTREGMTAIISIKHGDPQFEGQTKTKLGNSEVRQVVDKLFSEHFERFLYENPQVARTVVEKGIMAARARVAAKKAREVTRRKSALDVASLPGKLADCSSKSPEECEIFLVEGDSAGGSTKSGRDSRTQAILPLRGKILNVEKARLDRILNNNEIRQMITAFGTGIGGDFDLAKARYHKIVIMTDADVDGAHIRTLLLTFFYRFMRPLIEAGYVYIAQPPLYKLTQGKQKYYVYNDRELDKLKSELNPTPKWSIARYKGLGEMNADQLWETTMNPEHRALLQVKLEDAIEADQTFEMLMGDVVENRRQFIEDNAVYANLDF
# DNA gyrase (Staphylococcus aureus, UniProt P0A0K8+P20831), sequence (P20831 whole entry): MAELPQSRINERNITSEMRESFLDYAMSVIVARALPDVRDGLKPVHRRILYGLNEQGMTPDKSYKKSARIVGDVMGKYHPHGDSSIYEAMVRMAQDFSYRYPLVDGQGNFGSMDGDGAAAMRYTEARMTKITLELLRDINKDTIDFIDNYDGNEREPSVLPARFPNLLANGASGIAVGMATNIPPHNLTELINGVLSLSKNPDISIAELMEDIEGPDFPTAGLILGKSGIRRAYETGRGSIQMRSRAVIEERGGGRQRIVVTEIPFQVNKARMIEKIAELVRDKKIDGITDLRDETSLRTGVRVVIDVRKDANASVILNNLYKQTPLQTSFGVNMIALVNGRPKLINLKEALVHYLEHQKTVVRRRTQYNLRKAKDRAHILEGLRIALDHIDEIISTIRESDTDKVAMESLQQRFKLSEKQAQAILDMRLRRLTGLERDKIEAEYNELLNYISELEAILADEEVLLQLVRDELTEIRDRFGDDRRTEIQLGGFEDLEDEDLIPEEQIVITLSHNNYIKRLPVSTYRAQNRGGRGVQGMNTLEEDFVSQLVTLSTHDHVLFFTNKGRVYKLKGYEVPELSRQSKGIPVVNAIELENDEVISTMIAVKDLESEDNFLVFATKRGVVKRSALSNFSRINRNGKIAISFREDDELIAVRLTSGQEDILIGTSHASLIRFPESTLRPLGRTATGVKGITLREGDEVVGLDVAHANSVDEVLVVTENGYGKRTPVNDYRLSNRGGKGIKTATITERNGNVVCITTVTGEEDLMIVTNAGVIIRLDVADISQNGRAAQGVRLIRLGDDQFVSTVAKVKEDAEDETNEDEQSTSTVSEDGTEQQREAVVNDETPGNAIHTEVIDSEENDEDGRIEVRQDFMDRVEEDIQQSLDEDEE
# DNA gyrase (Staphylococcus aureus), sequence (P0A0K8 2-644 limits assumed): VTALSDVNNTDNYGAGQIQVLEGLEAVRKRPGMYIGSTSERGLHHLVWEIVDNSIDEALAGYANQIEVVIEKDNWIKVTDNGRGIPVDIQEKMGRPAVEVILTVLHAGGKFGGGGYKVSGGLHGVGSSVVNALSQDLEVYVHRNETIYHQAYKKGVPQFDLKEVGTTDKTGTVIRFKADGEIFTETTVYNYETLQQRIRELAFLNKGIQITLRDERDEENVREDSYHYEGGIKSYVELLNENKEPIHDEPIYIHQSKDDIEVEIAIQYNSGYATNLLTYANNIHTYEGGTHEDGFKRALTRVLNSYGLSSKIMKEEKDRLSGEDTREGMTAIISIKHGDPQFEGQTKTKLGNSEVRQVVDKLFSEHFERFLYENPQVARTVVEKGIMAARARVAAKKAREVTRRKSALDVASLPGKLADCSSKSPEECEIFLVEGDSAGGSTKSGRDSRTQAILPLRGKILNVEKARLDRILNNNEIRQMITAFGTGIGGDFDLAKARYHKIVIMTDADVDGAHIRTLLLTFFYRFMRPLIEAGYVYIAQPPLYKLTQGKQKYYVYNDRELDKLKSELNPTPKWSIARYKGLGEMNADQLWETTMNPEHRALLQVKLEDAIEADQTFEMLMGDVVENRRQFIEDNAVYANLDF
# DNA gyrase (Staphylococcus aureus), sequence (P20831 whole entry partner, the tested form may be a part): as the sequence (P20831 whole entry) above
SMILES,MIC (Enterococcus faecalis [1]),inhibition of growth at 50 µM (Escherichia coli [2]),Activity [3],MIC (Escherichia coli [4]),MIC (Pseudomonas aeruginosa [5]),Activity (Escherichia coli [6]),MIC (Escherichia coli [7]),IC50 (DNA gyrase [8]),inhibition of growth at 50 µM (Pseudomonas aeruginosa [9]),inhibition of growth at 50 µM (Enterococcus faecalis [10]),MIC (Staphylococcus aureus [11]),MIC (Escherichia coli [12]),MIC (Escherichia coli [13]),IC50 (DNA gyrase [14]),inhibition of growth at 50 µM (Staphylococcus aureus [15]),Activity [16],Kd (DNA gyrase [17]),IC50 [18],IC50 [19],IC50 (Topoisomerase IV)
O=C(O)CCC(=O)Nc1nc2c(s1)C[C@@H](NC(=O)c1cc(Cl)c(Cl)[nH]1)CC2,> 125 µM,< 50%,97%,> 256 µg/mL,> 125 µM,72%,> 125 µM,10 µM,< 50%,< 50%,> 125 µM,> 256 µg/mL,> 256 µg/mL,0.3 µM,< 50%,,,,,
O=C(O)CC(=O)Nc1nc2c(s1)C[C@@H](NC(=O)c1cc(Cl)c(Cl)[nH]1)CC2,> 125 µM,< 50%,102%,> 256 µg/mL,> 125 µM,98%,> 125 µM,,< 50%,< 50%,> 125 µM,> 256 µg/mL,> 256 µg/mL,0.13 µM,< 50%,87%,0.049 µM,0.66 µM,,
COC(=O)CC(=O)Nc1nc2c(s1)C[C@@H](NC(=O)c1cc(Cl)c(Cl)[nH]1)CC2,> 125 µM,< 50%,101%,32 µg/mL,> 125 µM,97%,> 125 µM,,< 50%,< 50%,> 125 µM,32 µg/mL,> 256 µg/mL,0.4 µM,< 50%,63%,0.05 µM,,,
CCOC(=O)C(=O)Nc1nc2c(s1)C[C@@H](NC(=O)c1cc(Cl)c(Cl)[nH]1)CC2,> 125 µM,< 50%,,256 µg/mL,> 125 µM,,> 125 µM,320 µM,< 50%,< 50%,> 125 µM,> 256 µg/mL,> 256 µg/mL,0.4 µM,< 50%,,,,300 µM,290 µM
COC(=O)CCC(=O)Nc1nc2c(s1)C[C@@H](NC(=O)c1cc(Br)c(Br)[nH]1)CC2,> 125 µM,< 50%,99%,32 µg/mL,> 125 µM,97%,> 125 µM,,< 50%,< 50%,> 125 µM,64 µg/mL,> 256 µg/mL,0.093 µM,< 50%,113%,0.15 µM,,,
O=C(O)CC(=O)Nc1nc2c(s1)C[C@@H](NC(=O)c1cc3ccccc3[nH]1)CC2,> 125 µM,< 50%,103%,> 256 µg/mL,> 125 µM,96%,> 125 µM,,< 50%,< 50%,> 125 µM,> 256 µg/mL,> 256 µg/mL,7.6 µM,< 50%,117%,,22 µM,,
O=C(O)C(=O)Nc1nc2c(s1)C[C@@H](NC(=O)c1cc(Cl)c(Cl)[nH]1)CC2,> 125 µM,< 50%,,> 256 µg/mL,> 125 µM,82%,> 125 µM,300 µM,< 50%,< 50%,> 125 µM,> 256 µg/mL,> 256 µg/mL,0.59 µM,< 50%,,,,,170 µM
Nc1nc2c(s1)C[C@@H](NC(=O)c1cc(Cl)c(Cl)[nH]1)CC2,> 125 µM,< 50%,98%,64 µg/mL,> 125 µM,97%,> 125 µM,,< 50%,< 50%,> 125 µM,64 µg/mL,> 256 µg/mL,12 µM,< 50%,85%,,,,
COC(=O)CC(=O)Nc1nc2c(s1)C[C@H](NC(=O)c1cc(Br)c(Br)[nH]1)CC2,> 125 µM,< 50%,85%,64 µg/mL,> 125 µM,101%,> 125 µM,,< 50%,< 50%,> 125 µM,256 µg/mL,> 256 µg/mL,9.1 µM,< 50%,64%,,,,
Nc1ncc2c(n1)CCC(NC(=O)c1cc(Br)c(Br)[nH]1)C2 (stereo unspecified),> 125 µM,< 50%,98%,> 256 µg/mL,> 125 µM,102%,> 125 µM,,< 50%,< 50%,> 125 µM,> 256 µg/mL,> 256 µg/mL,2.9 µM,< 50%,96%,,,,
CC(=O)Nc1nc2c(s1)C[C@@H](NC(=O)c1cc(Br)c(Br)[nH]1)CC2,> 125 µM,< 50%,101%,,> 125 µM,98%,> 125 µM,26 µM,< 50%,< 50%,> 125 µM,,,0.15 µM,< 50%,,,,,
Nc1nc2c(s1)C[C@@H](NC(=O)c1cc(Br)c(Br)[nH]1)CC2,> 125 µM,< 50%,102%,64 µg/mL,> 125 µM,101%,> 125 µM,,< 50%,< 50%,> 125 µM,64 µg/mL,> 256 µg/mL,12 µM,< 50%,90%,3 µM,25 µM,,
CCOC(=O)C(=O)Nc1nc2c(s1)C[C@@H](NC(=O)c1cc(Br)c(Br)[nH]1)CC2,> 125 µM,< 50%,,128 µg/mL,> 125 µM,74%,> 125 µM,80 µM,< 50%,< 50%,> 125 µM,> 256 µg/mL,> 256 µg/mL,0.1 µM,< 50%,,,0.57 µM,,180 µM
COC(=O)CCC(=O)Nc1nc2c(s1)C[C@@H](NC(=O)c1cc(Cl)c(Cl)[nH]1)CC2,> 125 µM,< 50%,93%,> 256 µg/mL,> 125 µM,100%,> 125 µM,,< 50%,< 50%,> 125 µM,> 256 µg/mL,> 256 µg/mL,0.89 µM,< 50%,86%,,,,
O=C(O)CCC(=O)Nc1nc2c(s1)C[C@@H](NC(=O)c1cc3ccccc3[nH]1)CC2,> 125 µM,< 50%,79%,> 256 µg/mL,> 125 µM,99%,> 125 µM,,< 50%,< 50%,> 125 µM,> 256 µg/mL,> 256 µg/mL,8.1 µM,< 50%,95%,,,,
O=C(O)CCC(=O)Nc1nc2c(s1)C[C@@H](NC(=O)c1cc(Br)c(Br)[nH]1)CC2,> 125 µM,< 50%,,256 µg/mL,> 125 µM,90%,> 125 µM,270 µM,< 50%,< 50%,> 125 µM,> 256 µg/mL,> 256 µg/mL,0.049 µM,< 50%,,0.01 µM,,,110 µM
